Experimental data taken from ChEMBL document CHEMBL1201862, “PubChem BioAssay data set” (2004).
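Cells were grown in 96-well plates and exposed to each compound for 48 hours at five concentrations; endpoints were interpolated linearly between bracketing concentrations, or set to the highest concentration if not reached. At the GI50, growth is halved.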 Active and inactive are the calls of the source. No stated cut-off is given here; in the data, active = GI50 up to about 1.1 µM and inactive = higher.

What was measured:
Experiment in all cases: growth of human tumour cells (NCI), 48 h
HL-60 = system: HL-60
MDA-MB-231 = system: MDA-MB-231
NCI-H460 = system: NCI-H460
OVCAR-3 = system: OVCAR-3
MCF7 = system: MCF7
A498 = system: A498
HCT-116 = system: HCT-116
786-0 = system: 786-0
CCRF-CEM = system: CCRF-CEM
BT-549 = system: BT-549
MDA-MB-435 = system: MDA-MB-435
SNB-19 = system: SNB-19
RXF 393 = system: RXF 393
Malme-3M = system: Malme-3M
HOP-92 = system: HOP-92
NCI/ADR-RES = system: NCI/ADR-RES
DU-145 = system: DU-145
HOP-62 = system: HOP-62
Hs-578T = system: Hs-578T
SR = system: SR

Row | SMILES | GI50 (HL-60) | GI50 (MDA-MB-231) | GI50 (NCI-H460) | GI50 (OVCAR-3) | GI50 (MCF7) | GI50 (A498) | GI50 (HCT-116) | GI50 (786-0) | GI50 (CCRF-CEM) | GI50 (BT-549) | GI50 (MDA-MB-435) | GI50 (SNB-19) | GI50 (RXF 393) | GI50 (Malme-3M) | GI50 (HOP-92) | GI50 (NCI/ADR-RES) | GI50 (DU-145) | GI50 (HOP-62) | GI50 (Hs-578T) | GI50 (SR)
1 | COc1cc(N(C)C)ccc1C=c1c2ccccc2n2c1cc(-c1ccccc1)[n+]2C | 0.149 µM (active) | 0.332 µM (active) | 0.294 µM (active) | 0.392 µM (active) | 0.302 µM (active) | 1.65 µM (inactive) | 0.175 µM (active) | 0.197 µM (active) | 0.208 µM (active) | 0.34 µM (active) | 0.358 µM (active) | 0.372 µM (active) | 0.345 µM (active) | 1.02 µM (active) | 0.319 µM (active) | 6.47 µM (inactive) | 0.323 µM (active) | 0.275 µM (active) | – | –
2 | CSC1=NC(C(N)=O)C(N)N1C (stereo not drawn) | > 100 µM (inactive) | 38.6 µM (inactive) | > 100 µM (inactive) | > 100 µM (inactive) | – | > 100 µM (inactive) | > 100 µM (inactive) | > 100 µM (inactive) | > 100 µM (inactive) | > 100 µM (inactive) | > 100 µM (inactive) | > 100 µM (inactive) | > 100 µM (inactive) | > 100 µM (inactive) | > 100 µM (inactive) | > 100 µM (inactive) | > 100 µM (inactive) | > 100 µM (inactive) | > 100 µM (inactive) | > 100 µM (inactive)
3 | O=C(NNS(=O)(=O)c1ccccc1)c1csc(NC(=S)NC2CCCCC2)n1 | 69.5 µM (inactive) | 22.8 µM (inactive) | – | 4.07 µM (inactive) | 41 µM (inactive) | 80.5 µM (inactive) | 18.1 µM (inactive) | 15.4 µM (inactive) | 39.6 µM (inactive) | 25.4 µM (inactive) | 20.6 µM (inactive) | – | – | 35.4 µM (inactive) | 55.2 µM (inactive) | 38.4 µM (inactive) | 27.2 µM (inactive) | 58.3 µM (inactive) | – | 36.9 µM (inactive)
4 | O=C(/C=C/c1c[nH]c2ccccc12)c1ccccc1O | 13.6 µM (inactive) | 3.18 µM (inactive) | 13.2 µM (inactive) | 5.05 µM (inactive) | 3.1 µM (inactive) | 15.1 µM (inactive) | 12.9 µM (inactive) | 12.5 µM (inactive) | – | 12.4 µM (inactive) | 4.88 µM (inactive) | 16.5 µM (inactive) | – | 11.7 µM (inactive) | 4.68 µM (inactive) | – | 11.7 µM (inactive) | 14.3 µM (inactive) | 22.6 µM (inactive) | –
5 | Cc1ccc(O)c(C2=CC(c3cccc(Cl)c3)SC(=N)N2)c1 (stereo not drawn) | 30 µM (inactive) | – | 23.9 µM (inactive) | 29.5 µM (inactive) | 29.9 µM (inactive) | – | 19.3 µM (inactive) | 30.8 µM (inactive) | 20.1 µM (inactive) | 31.6 µM (inactive) | 19 µM (inactive) | 16.1 µM (inactive) | 23.1 µM (inactive) | 24.2 µM (inactive) | 10.8 µM (inactive) | 29.2 µM (inactive) | 46.5 µM (inactive) | 23 µM (inactive) | 19.9 µM (inactive) | 17.3 µM (inactive)
6 | COC(=O)C1(Cc2cccc(Cl)c2)CCCCCCN1C(=O)c1ccccc1 (stereo not drawn) | 5.97 µM (inactive) | 13 µM (inactive) | 15.2 µM (inactive) | 6.71 µM (inactive) | 13.5 µM (inactive) | 15.4 µM (inactive) | 13.1 µM (inactive) | 13.2 µM (inactive) | 13.1 µM (inactive) | 16.7 µM (inactive) | 18.9 µM (inactive) | 15.1 µM (inactive) | – | 12.2 µM (inactive) | 14.3 µM (inactive) | 16.9 µM (inactive) | 19.3 µM (inactive) | 15.5 µM (inactive) | – | 13.9 µM (inactive)
7 | CCN(CC)C(=S)N/N=C/c1ccccn1 | < 0.0149 µM (active) | < 0.01 µM (active) | 0.0143 µM (active) | < 0.01 µM (active) | < 0.01 µM (active) | – | < 0.01 µM (active) | < 0.01 µM (active) | < 0.01 µM (active) | 0.37 µM (active) | 0.12 µM (active) | < 0.0118 µM (active) | – | 0.0205 µM (active) | 0.113 µM (active) | < 0.01 µM (active) | 0.154 µM (active) | < 0.01 µM (active) | – | –
8 | CC12ON=C(c3ccccc3)N1C=CN1C(c3ccccc3)=NOC12 (stereo not drawn) | – | > 100 µM (inactive) | > 100 µM (inactive) | > 100 µM (inactive) | > 100 µM (inactive) | – | 98.6 µM (inactive) | > 100 µM (inactive) | – | > 100 µM (inactive) | – | > 100 µM (inactive) | 64.9 µM (inactive) | > 100 µM (inactive) | – | > 100 µM (inactive) | > 100 µM (inactive) | > 100 µM (inactive) | > 100 µM (inactive) | –
9 | CCC(=O)O[C@H]1CC[C@H]2[C@@H]3CCC4=C/C(=N/NC(=O)c5cccc6c(=O)c7ccccc7[nH]c56)CC[C@]4(C)[C@H]3CC[C@]12C | – | > 25 µM (inactive) | > 25 µM (inactive) | > 25 µM (inactive) | > 25 µM (inactive) | > 25 µM (inactive) | – | 5.11 µM (inactive) | > 25 µM (inactive) | > 25 µM (inactive) | > 25 µM (inactive) | > 25 µM (inactive) | > 25 µM (inactive) | – | > 25 µM (inactive) | > 25 µM (inactive) | – | > 25 µM (inactive) | > 25 µM (inactive) | > 25 µM (inactive)
10 | O=c1c(NO)c([N+](=O)[O-])cnn1-c1ccccc1 | 0.789 µM (active) | – | 4.88 µM (inactive) | 2.98 µM (inactive) | 2.55 µM (inactive) | 20.6 µM (inactive) | 2.62 µM (inactive) | 6.07 µM (inactive) | 0.971 µM (active) | 1.58 µM (inactive) | 1.88 µM (inactive) | 10.9 µM (inactive) | 5.92 µM (inactive) | 4.6 µM (inactive) | 7.64 µM (inactive) | – | 13.8 µM (inactive) | 8.83 µM (inactive) | < 0.01 µM (active) | 2.78 µM (inactive)
11 | CC(=O)n1c2ccc(Br)cc2c2nc3ccccc3nc21 | > 100 µM (inactive) | > 100 µM (inactive) | > 100 µM (inactive) | > 100 µM (inactive) | 56.2 µM (inactive) | – | > 100 µM (inactive) | > 100 µM (inactive) | > 100 µM (inactive) | > 100 µM (inactive) | > 100 µM (inactive) | > 100 µM (inactive) | > 100 µM (inactive) | > 100 µM (inactive) | > 100 µM (inactive) | > 100 µM (inactive) | > 100 µM (inactive) | 95.1 µM (inactive) | – | > 100 µM (inactive)
12 | COCN1C(=O)[C@@H]2CCCN2C(=O)c2cc([N+](=O)[O-])ccc21 | – | 61.1 µM (inactive) | – | – | 46.3 µM (inactive) | 43 µM (inactive) | 86.9 µM (inactive) | > 100 µM (inactive) | – | 62.5 µM (inactive) | 66.2 µM (inactive) | 96.6 µM (inactive) | 19 µM (inactive) | 88.5 µM (inactive) | – | > 100 µM (inactive) | 39.8 µM (inactive) | 41.1 µM (inactive) | > 100 µM (inactive) | –
13 | O=c1cc(N2CCCC2)[nH]c(=O)n1Cc1ccccc1 | > 100 µM (inactive) | > 100 µM (inactive) | > 100 µM (inactive) | – | > 100 µM (inactive) | – | > 100 µM (inactive) | > 100 µM (inactive) | > 100 µM (inactive) | > 100 µM (inactive) | > 100 µM (inactive) | > 100 µM (inactive) | – | > 100 µM (inactive) | > 100 µM (inactive) | > 100 µM (inactive) | > 100 µM (inactive) | > 100 µM (inactive) | – | > 100 µM (inactive)
14 | COc1cccc(/C=N/[N+](C)(C)C)c1O | > 10 µM (inactive) | > 10 µM (inactive) | > 10 µM (inactive) | > 10 µM (inactive) | > 10 µM (inactive) | > 10 µM (inactive) | > 10 µM (inactive) | > 10 µM (inactive) | > 10 µM (inactive) | > 10 µM (inactive) | > 10 µM (inactive) | > 10 µM (inactive) | > 10 µM (inactive) | > 10 µM (inactive) | – | > 10 µM (inactive) | > 10 µM (inactive) | > 10 µM (inactive) | > 10 µM (inactive) | –
15 | O=C1c2ccccc2C(=O)N1n1c(Cc2ccc([N+](=O)[O-])cc2)n[nH]c1=O | – | > 100 µM (inactive) | > 100 µM (inactive) | > 100 µM (inactive) | > 100 µM (inactive) | > 100 µM (inactive) | > 100 µM (inactive) | > 100 µM (inactive) | – | > 100 µM (inactive) | > 100 µM (inactive) | > 100 µM (inactive) | > 100 µM (inactive) | > 100 µM (inactive) | > 100 µM (inactive) | > 100 µM (inactive) | > 100 µM (inactive) | > 100 µM (inactive) | – | > 100 µM (inactive)
16 | NS(=O)(=O)c1cc(S(N)(=O)=O)c(NC(=O)Nc2ccc(Cl)c(Cl)c2)c(Cl)c1Cl | – | > 100 µM (inactive) | > 100 µM (inactive) | > 100 µM (inactive) | > 100 µM (inactive) | – | > 100 µM (inactive) | > 100 µM (inactive) | – | > 100 µM (inactive) | > 100 µM (inactive) | > 100 µM (inactive) | – | – | 4.18 µM (inactive) | > 100 µM (inactive) | – | – | > 100 µM (inactive) | > 100 µM (inactive)
17 | Nc1ccc2nc(-c3cccc(Cl)c3)cc(O)c2c1 | – | 26.5 µM (inactive) | 4.39 µM (inactive) | – | 3.46 µM (inactive) | – | – | 4.24 µM (inactive) | 2.14 µM (inactive) | 5.45 µM (inactive) | 0.738 µM (active) | 5.83 µM (inactive) | – | 3.26 µM (inactive) | 2.84 µM (inactive) | 3.56 µM (inactive) | – | 5.87 µM (inactive) | 6.79 µM (inactive) | –
